The values below come from patent US6489331B1, “Remedies for diabetes” (Kyowa Hakko Kogyo Co., Ltd., priority 1998, dated 2002).

The test system of one series is MIN6 cell. The experiment in a line: Insulin secretion enhancing action in cultured β-cell (MIN6). In kind it is cell-based. As to conditions: for Amount of secreted insulin (ng/ml) avg: in the presence of 14.5 mM glucose, drug concentration 1.0 μM. As for the experimental part:
Culture of the MIN6 cells and insulin secretion test utilizing the MIN6 cells were performed basically according to the methods described in literature (Ishihara et al., Diabetologia, vol. 36, pp.1139-1145, 1993). The effect of a compound on the insulin secretion in the presence of 14.5 mM glucose was determined by measuring insulin amounts in cell culture supernatants collected as follows. MIN6 cells cultured on a 24-well plate were washed twice by using 1 ml of Buffer A (119 mM sodium chloride, 4.74 mM potassium chloride, 2.54 mM calcium chloride, 1.19 mM magnesium sulfate, 1.19 mM potassium dihydrogenphosphate, 10 mM 2-[4-(2-hydroxyethyl)-1-piperazinyl]ethanesulfonic acid, 0.1% bovine serum albumin, pH 7.3) containing 2 mM glucose, and then were incubated in 1 ml of Buffer A containing 2 mM glucose at 37° C. for 45 minutes. After the incubation, the culture supernatant was changed to Buffer A (0.9 ml) containing a test compound at various concentrations and 2 mM glucose, and the cells were further incubated at 37° C. for 15 minutes. The MIN6 cells were stimulated with glucose by the addition of Buffer A (0.1 ml) containing 127 mM glucose to the culture (final glucose concentration: 14.5 mM). After the stimulation, the cells were further incubated at 37° C. for 45 minutes, and then the culture supernatant was collected.
Separately, the effect of a compound on the insulin secretion in the presence of 5 mM glucose was determined by measuring insulin amounts in cell culture supernatants collected as follows. MIN6 cells cultured on a 24-well plate were washed twice by using 1 ml of Buffer A containing 5 mM glucose, and then the culture supernatant was changed to Buffer A (0.9 ml) containing a test compound at various concentrations and 5 mM glucose. Then, the cells were incubated at 37° C. for 45 minutes (final glucose concentration: 5 mM), and the culture supernatant was collected.
After the culture supernatant was diluted with a phosphate buffer containing 1% bovine serum albumin, 0.1% Tween 20, 0.12% disodium ethylenediaminetetraacetate and 0.1% sodium azide, antibody-reactive insulin secreted in the culture supernatant was quantified by enzyme immunoassay or radio immunoassay. […] The results are indicated as averages (avg) for 3 to 4 samples with standard error values (se).

Where a name gives a salt, the structure may show the parent alone.

`CCCN1C(=O)N2C[C@H](C(C)C)N=C2c2[nH]c(C3CCCC3)nc21.Cl`: the melting point (as a rule, the temperature of the solid-liquid transition) is 109 to 112 °C. Still for that read-out and setting: next, `CCCCC1CN2C(=O)N(CCC)c3nc(C4CCCC4)[nH]c3C2=N1.Cl` (centres unmarked): 146 to 148 °C. In turn, `CCCN1C(=O)N2CC(Cc3ccc([N+](=O)[O-])cc3)N=C2c2[nH]c(C3CCCC3)nc21.Cl` (centres unmarked) came in with a melting point of 215 to 217 °C. As for `CCCN1C(=O)N2C[C@@H](Cc3ccccc3)N=C2c2c1ncn2Cc1ccccc1.Cl`, the melting point fell in the range of 198 to 200 °C. The same measure, in the same setting: next, `CCCc1nc2c([nH]1)C1=NC(Cc3ccc(Cl)cc3)CN1C(=O)N2CCC.Cl` (centres unmarked): 191 to 192 °C. In turn, `CCCN1C(=O)N2CC(Cc3ccc(Cl)cc3)N=C2c2[nH]c(C3CCC3)nc21.Cl` (centres unmarked) had a melting point of 214 to 215 °C. On the same count and under the same terms, as for `CCCc1nc2c([nH]1)C1=NC(Cc3ccc(F)cc3)CN1C(=O)N2CCC.Cl` (centres unmarked), the figure is 199 to 200 °C. The same measure, in the same setting: next, `CCCCc1nc2c([nH]1)C1=NC(Cc3ccc(F)cc3)CN1C(=O)N2CCC.Cl` (centres unmarked): 193 to 196 °C; `CCCc1nc2c([nH]1)C1=NC(Cc3cccc(F)c3)CN1C(=O)N2CCC.Cl` (centres unmarked): 139 to 140 °C. On the same count and under the same terms, next, `CCCN1C(=O)N2CC(Cc3cccc(F)c3)N=C2c2[nH]c(C3CCC3)nc21.Cl` (centres unmarked): 164 to 165 °C. With `CCCN1C(=O)N2CC(Cc3cccc(F)c3)N=C2c2[nH]c(CC(C)C)nc21` (centres unmarked), the melting point was 186 to 187 °C. Still for that read-out and setting: as for `CCCN1C(=O)N2C[C@@H](C)N=C2c2[nH]c(C3CCCC3)nc21.Cl`, the figure is 218 to 219 °C; as for `CCCN1C(=O)N2CC(Cc3ccccc3F)N=C2c2[nH]c(CC(C)C)nc21` (centres unmarked), 159 to 160 °C; as for `CCCN1C(=O)N2C[C@H](C(C)C)N=C2c2[nH]c(C(C)C)nc21.Cl`, 156 to 157 °C. Take `CCCN1C(=O)N2C[C@@H](C(C)C)N=C2c2[nH]c(C3CCCC3)nc21.Cl`: the melting point is 116 to 118 °C.

Take `CCCN1C(=O)N2CC(Cc3ccc(F)cc3)N=C2c2[nH]c(C3CCCC3)nc21` (centres unmarked) (as salt: hydrochloride) [Compound 18, 2-cyclopentyl-8-(4-fluorobenzyl)-7,8-dihydro-4-propyl-1H-imidazo[2,1-i]purin-5(4H)-one hydrochloride]: the melting point fell in the range of 226 to 228 °C. On the same count and under the same terms, next, `CCCN1C(=O)N2CC(Cc3ccc(Cl)cc3)N=C2c2[nH]c(C3CCCC3)nc21` (centres unmarked) (as salt: hydrochloride) [Compound 20, 8-(4-chlorobenzyl)-2-cyclopentyl-7,8-dihydro-4-propyl-1H-imidazo[2,1-i]purin-5(4H)-one hydrochloride]: 222 to 224 °C. Regarding `CCCN1C(=O)N2CC(Cc3ccc(Br)cc3)N=C2c2[nH]c(C3CCCC3)nc21` (centres unmarked) (as salt: hydrochloride) [Compound 23, 8-(4-bromobenzyl)-2-cyclopentyl-7,8-dihydro-4-propyl-1H-imidazo[2,1-i]purin-5(4H)-one hydrochloride], the melting point fell in the range of 184 to 186 °C.

Consider `CCCN1C(=O)N2CC(CCc3ccccc3)N=C2c2[nH]c(C3CCCC3)nc21` (centres unmarked) (as salt: hydrochloride) [Compound 31, 2-cyclopentyl-7,8-dihydro-8-phenethyl-4-propyl-1H-imidazo[2,1-i]purin-5(4H)-one hydrochloride], for which the melting point lay in the range of 171 to 173 °C. `CCCc1nc2c([nH]1)C1=N[C@H](Cc3ccccc3)CN1C(=O)N2CCC` (as salt: hydrochloride) [Compound 35, (R)-8-benzyl-7,8-dihydro-2,4-dipropyl-1H-imidazo[2,1-i]purin-5(4H)-one hydrochloride]: the melting point was 195 to 197 °C. For `CCCN1C(=O)N2C[C@@H](Cc3ccccc3)N=C2c2[nH]c(C3CCC3)nc21` (as salt: hydrochloride) [Compound 37, (R)-8-benzyl-2-cyclobutyl-7,8-dihydro-4-propyl-1H-imidazo[2,1-i]purin-5(4H)-one hydrochloride], the melting point lay within 214 to 216 °C. Turning to `CCCN1C(=O)N2C[C@@H](Cc3ccccc3)N=C2c2[nH]c(C(C)(C)C)nc21` (as salt: hydrochloride) [Compound 43, (R)-8-benzyl-2-tert-butyl-7,8-dihydro-4-propyl-1H-imidazo[2,1-i]purin-5(4H)-one hydrochloride], the melting point is 220 to 222 °C. Still for that read-out and setting: next, `CCCN1C(=O)N2CC(Cc3ccc(F)cc3)N=C2c2[nH]c(C3CCCCC3)nc21` (centres unmarked) (as salt: hydrochloride) [Compound 50, 2-cyclohexyl-8-(4-fluorobenzyl)-7,8-dihydro-4-propyl-1H-imidazo[2,1-i]purin-5(4H)-one hydrochloride]: 237 to 239 °C. On the same count and under the same terms, as for `CCCN1C(=O)N2CC(Cc3cc(Cl)ccc3Cl)N=C2c2[nH]c(C3CCCC3)nc21` (centres unmarked) (as salt: hydrochloride) [Compound 65, 2-cyclopentyl-8-(2,5-dichlorobenzyl)-7,8-dihydro-4-propyl-1H-imidazo[2,1-i]purin-5(4H)-one hydrochloride], the figure is 172 to 173 °C.

On to `CC(C)[C@H]1CC[C@H](C(=O)N[C@H](Cc2ccccc2)C(=O)O)CC1` [AY4166, AY-4166, reference compound], for which the “Amount of secreted insulin (ng/ml) avg” value with MIN6 cell worked out at 195.1 ng/mL. Besides, the “insulin secretion enhancing action at low glucose” value in the series with MIN6 cell (low glucose concentration (5 mM), controls for comparison) is “showed marked secretion enhancing action”.

Regarding `CCCN1C(=O)N2CC(Cc3ccc(F)cc3)N=C2c2[nH]c(C3CCCC3)nc21` (centres unmarked) [Compound 18, 2-cyclopentyl-8-(4-fluorobenzyl)-7,8-dihydro-4-propyl-1H-imidazo[2,1-i]purin-5(4H)-one hydrochloride], the “Amount of secreted insulin (ng/ml) avg” value in the series on MIN6 cell turned out to be 181.9 ng/mL.

On to `CCCN1C(=O)N2CC(Cc3ccc(Cl)cc3)N=C2c2[nH]c(C3CCCC3)nc21` (centres unmarked) [Compound 20, 8-(4-chlorobenzyl)-2-cyclopentyl-7,8-dihydro-4-propyl-1H-imidazo[2,1-i]purin-5(4H)-one hydrochloride], for which the “Amount of secreted insulin (ng/ml) avg” value with MIN6 cell turned out to be 235.9 ng/mL. Still for that read-out and setting: next, `CCCN1C(=O)N2C[C@@H](Cc3ccccc3)N=C2c2[nH]c(C3CCC3)nc21` [Compound 37, (R)-8-benzyl-2-cyclobutyl-7,8-dihydro-4-propyl-1H-imidazo[2,1-i]purin-5(4H)-one hydrochloride]: 202.8 ng/mL; `CCCN1C(=O)N2C[C@@H](Cc3ccccc3)N=C2c2[nH]c(C(C)(C)C)nc21` [Compound 43, (R)-8-benzyl-2-tert-butyl-7,8-dihydro-4-propyl-1H-imidazo[2,1-i]purin-5(4H)-one hydrochloride]: 199.1 ng/mL. On to `CCCN1C(=O)N2CC(Cc3ccc(F)cc3)N=C2c2[nH]c(C3CCCCC3)nc21` (centres unmarked) [Compound 50, 2-cyclohexyl-8-(4-fluorobenzyl)-7,8-dihydro-4-propyl-1H-imidazo[2,1-i]purin-5(4H)-one hydrochloride], for which, in the series with MIN6 cell, the “Amount of secreted insulin (ng/ml) avg” value was found to be 209.5 ng/mL. As to `CCCN1C(=O)N2C[C@H](C(C)(C)C)N=C2c2[nH]c(-c3ccoc3)nc21` [Compound 67, (S)-8-tert-butyl-2-(3-furyl)-7,8-dihydro-4-propyl-1H-imidazo[2,1-i]purin-5(4H)-one], the melting point is 204 to 206 °C.
